Data on six compounds can be found in PubChem BioAssay AID1259407 (Chemical Carcinogenesis Research Information System (CCRIS), 2018).

This series has as its system CCRIS mutagenicity, Ames/micronucleus/aberration tests. Briefly: CCRIS mutagenicity studies.
Setting [1] is: Test System: AMES SALMONELLA TYPHIMURIUM, Strain/Indicator: TA98, Metabolic Activation: NONE, Method: STANDARD PLATE.
The mark [2] stands for this setting: Test System: AMES SALMONELLA TYPHIMURIUM, Strain/Indicator: TA98, Metabolic Activation: NONE, Method: PREINCUBATION
Where [3] appears, read: Test System: AMES SALMONELLA TYPHIMURIUM, Strain/Indicator: TA100, Metabolic Activation: NONE, Method: PREINCUBATION

The source made the active and inactive calls. No rule for the calls is given here.

Turning to `O=C1OCCN1N=Cc1ccc([N+](=O)[O-])o1`, the mutagenic call is, setting by setting: (End Point: In vivo micronucleus, Test System: Bone marrow polychromatic erythrocytes, Species: Rat, Strain/Sex: Sprague-Dawley/Female, Route: Oral) “inactive; positive (p</=0.05 for mononuclei; p</=0.01 for binuclei for furazolidone alone;”; (Test System: AMES SALMONELLA TYPHIMURIUM, Strain/Indicator: TA98(1,8-DNP6), Metabolic Activation: NONE, Method: STANDARD PLATE) “active; positive”; (Test System: AMES SALMONELLA TYPHIMURIUM, Strain/Indicator: TA98(1,8-DNP6), Metabolic Activation: RAT, LIVER, S-9, 3-METHYLCHOLANTHRENE, Method: STANDARD PLATE) “active; positive”; (Test System: AMES SALMONELLA TYPHIMURIUM, Strain/Indicator: TA98(NR), Metabolic Activation: NONE, Method: STANDARD PLATE) “active; positive”; (Test System: AMES SALMONELLA TYPHIMURIUM, Strain/Indicator: TA98(NR), Metabolic Activation: RAT, LIVER, S-9, 3-METHYLCHOLANTHRENE, Method: STANDARD PLATE) “active; positive”; (Test System: AMES SALMONELLA TYPHIMURIUM, Strain/Indicator: TA98, Metabolic Activation: NONE) “active; positive”. The mutagenic call under setting [1] is “active; positive”; the mutagenic call (Test System: AMES SALMONELLA TYPHIMURIUM, Strain/Indicator: TA98, Metabolic Activation: RAT, LIVER, S-9, 3-METHYLCHOLANTHRENE, Method: STANDARD PLATE) was “active; positive”; the mutagenic call (Test System: AMES SALMONELLA TYPHIMURIUM, Strain/Indicator: TA98, Metabolic Activation: S-9) was “active; positive”; the mutagenic call (Test System: AMES SALMONELLA TYPHIMURIUM, Strain/Indicator: TA100, Metabolic Activation: NONE) was “active; positive”; the mutagenic call (Test System: AMES SALMONELLA TYPHIMURIUM, Strain/Indicator: TA100, Metabolic Activation: S-9) is “active; positive”; the mutagenic call (Test System: CHINESE HAMSTER OVARY, Strain/Indicator: CHO-AS52, Metabolic Activation: NONE) was “inactive; negative”. Further, the mutagenic call runs as follows: (Test System: CHINESE HAMSTER OVARY, Strain/Indicator: CHO-AS52, Metabolic Activation: RAT, LIVER, S-9, 3-METHYLCHOLANTHRENE) “inactive; negative”; (Test System: CHINESE HAMSTER OVARY, Strain/Indicator: CHO-K1-BH4, Metabolic Activation: NONE) “active; positive”; (Test System: CHINESE HAMSTER OVARY, Strain/Indicator: CHO-K1-BH4, Metabolic Activation: RAT, LIVER, S-9, 3-METHYLCHOLANTHRENE) “active; positive”; (Test System: CHINESE HAMSTER OVARY, Strain/Indicator: CHO-UV5, Metabolic Activation: NONE) “active; positive”; (Test System: CHINESE HAMSTER OVARY, Strain/Indicator: CHO-UV5, Metabolic Activation: RAT, LIVER, S-9, 3-METHYLCHOLANTHRENE) “active; positive”; (Test System: E. COLI, Strain/Indicator: TC3960, Metabolic Activation: NONE, Method: PREINCUBATION) “active; positive”. The mutagenic call was “active; positive” (Test System: E. COLI, Strain/Indicator: WP2, Metabolic Activation: NONE, Method: SPOT) and “active; positive” (Test System: E. COLI, Strain/Indicator: WP2 UVRA, Metabolic Activation: NONE, Method: SPOT).

`C[C@]12CC[C@@H]3c4ccc(O)c(O)c4CC[C@H]3[C@@H]1CCC2=O`: the mutagenic call was “inactive; negative” (Test System: Ames Salmonella typhimurium, Strain/Indicator: TA98, Metabolic Activation: None, Method: Standard plate); “inactive; negative” (Test System: Ames Salmonella typhimurium, Strain/Indicator: TA98, Metabolic Activation: Rat, liver, S-9, Method: Standard plate); “inactive; negative” (Test System: Ames Salmonella typhimurium, Strain/Indicator: TA100, Metabolic Activation: None, Method: Standard plate); “inactive; negative” (Test System: Ames Salmonella typhimurium, Strain/Indicator: TA100, Metabolic Activation: Rat, liver, S-9, Method: Standard plate).

For the compound `CCCCN(CC(C)=O)N=O`, under “Test System: AMES SALMONELLA TYPHIMURIUM, Strain/Indicator: TA1535, Metabolic Activation: RAT, LIVER, S-9, KC500 OR PHENOBARBITAL, Method: LIQUID SUSPENSION”, the mutagenic call is “active; positive”.

Consider `O=C1CN(CCN2CC(=O)N(CN3CCOCC3)C(=O)C2)CC(=O)N1CN1CCOCC1`, for which the mutagenic call is, setting by setting: (Test System: AMES SALMONELLA TYPHIMURIUM, Strain/Indicator: TA97, Metabolic Activation: NONE, Method: PREINCUBATION) “inactive; negative”; (Test System: AMES SALMONELLA TYPHIMURIUM, Strain/Indicator: TA97, Metabolic Activation: S-9, Method: PREINCUBATION) “inactive; negative”; under setting [2], “active; positive”; (Test System: AMES SALMONELLA TYPHIMURIUM, Strain/Indicator: TA98, Metabolic Activation: S-9, Method: PREINCUBATION) “inactive; negative”; under setting [3], “inactive; negative”; (Test System: AMES SALMONELLA TYPHIMURIUM, Strain/Indicator: TA100, Metabolic Activation: S-9, Method: PREINCUBATION) “inactive; negative”. The mutagenic call runs as follows: (Test System: AMES SALMONELLA TYPHIMURIUM, Strain/Indicator: TA102, Metabolic Activation: NONE, Method: PREINCUBATION) “active; positive”; (Test System: AMES SALMONELLA TYPHIMURIUM, Strain/Indicator: TA102, Metabolic Activation: S-9, Method: PREINCUBATION) “inactive; negative”.

As for `C1CCC2OCCOCCOCCOCCOC3CCCCC3OCCOCCOCCOCCOC2C1` (stereo not drawn), the mutagenic call was “inactive; negative” under setting [1]; “inactive; negative” (Test System: AMES SALMONELLA TYPHIMURIUM, Strain/Indicator: TA98, Metabolic Activation: RAT, LIVER, S-9, AROCLOR 1254, Method: STANDARD PLATE); “inactive; negative” (Test System: AMES SALMONELLA TYPHIMURIUM, Strain/Indicator: TA100, Metabolic Activation: NONE, Method: STANDARD PLATE); “inactive; negative” (Test System: AMES SALMONELLA TYPHIMURIUM, Strain/Indicator: TA100, Metabolic Activation: RAT, LIVER, S-9, AROCLOR 1254, Method: STANDARD PLATE); “inactive; negative” (Test System: AMES SALMONELLA TYPHIMURIUM, Strain/Indicator: TA1530, Metabolic Activation: NONE, Method: STANDARD PLATE); “inactive; negative” (Test System: AMES SALMONELLA TYPHIMURIUM, Strain/Indicator: TA1530, Metabolic Activation: RAT, LIVER, S-9, AROCLOR 1254, Method: STANDARD PLATE). In addition, the mutagenic call is “inactive; negative” (Test System: AMES SALMONELLA TYPHIMURIUM, Strain/Indicator: TA1537, Metabolic Activation: NONE, Method: STANDARD PLATE) and “inactive; negative” (Test System: AMES SALMONELLA TYPHIMURIUM, Strain/Indicator: TA1537, Metabolic Activation: RAT, LIVER, S-9, AROCLOR 1254, Method: STANDARD PLATE).

For `CC(C)CN`, the mutagenic call is “inactive; negative” (Test System: AMES SALMONELLA TYPHIMURIUM, Strain/Indicator: TA98, Metabolic Activation: HAMSTER, LIVER, S-9, AROCLOR 1254 (10%), Method: PREINCUBATION); “inactive; negative” under setting [2]; “inactive; negative” (Test System: AMES SALMONELLA TYPHIMURIUM, Strain/Indicator: TA98, Metabolic Activation: RAT, LIVER, S-9, AROCLOR 1254 (10%), Method: PREINCUBATION); “inactive; negative” (Test System: AMES SALMONELLA TYPHIMURIUM, Strain/Indicator: TA100, Metabolic Activation: HAMSTER, LIVER, S-9, AROCLOR 1254 (10%), Method: PREINCUBATION); “inactive; negative” under setting [3]; “inactive; negative” (Test System: AMES SALMONELLA TYPHIMURIUM, Strain/Indicator: TA100, Metabolic Activation: RAT, LIVER, S-9, AROCLOR 1254 (10%), Method: PREINCUBATION). The mutagenic call (Test System: AMES SALMONELLA TYPHIMURIUM, Strain/Indicator: TA1535, Metabolic Activation: HAMSTER, LIVER, S-9, AROCLOR 1254 (10%), Method: PREINCUBATION) was “inactive; negative”; the mutagenic call (Test System: AMES SALMONELLA TYPHIMURIUM, Strain/Indicator: TA1535, Metabolic Activation: NONE, Method: PREINCUBATION) is “inactive; negative”; the mutagenic call (Test System: AMES SALMONELLA TYPHIMURIUM, Strain/Indicator: TA1535, Metabolic Activation: RAT, LIVER, S-9, AROCLOR 1254 (10%), Method: PREINCUBATION) is “inactive; negative”; the mutagenic call (Test System: AMES SALMONELLA TYPHIMURIUM, Strain/Indicator: TA1537, Metabolic Activation: HAMSTER, LIVER, S-9, AROCLOR 1254 (10%), Method: PREINCUBATION) is “inactive; negative”; the mutagenic call (Test System: AMES SALMONELLA TYPHIMURIUM, Strain/Indicator: TA1537, Metabolic Activation: NONE, Method: PREINCUBATION) was “inactive; negative”; the mutagenic call (Test System: AMES SALMONELLA TYPHIMURIUM, Strain/Indicator: TA1537, Metabolic Activation: RAT, LIVER, S-9, AROCLOR 1254 (10%), Method: PREINCUBATION) is “inactive; negative”.
